Values quoted from earlier work in PMC9325861, “Mouse precision-cut liver slices as an ex vivo model to study drug-induced cholestasis” (Archives of Toxicology, 2022).
Where a name gives a salt, the structure may show the parent alone.

Key:
human PCLS = system: human PCLS; parameters: method as in Vatakuti et al. [2017]; settings: 30 µM CPZ, without BA mixture, ref Vatakuti et al. [2017]; cited from earlier work
rat PCLS = system: rat PCLS; parameters: method as in Starokozhko et al. [2017a]; settings: control 156.5, ref Starokozhko et al. [2017a]; cited from earlier work
mouse Bsep protein = system: mouse Bsep protein; parameters: method as in Noe et al. [2001]; settings: ref Noe et al. [2001]; cited from earlier work

Compound: CN(C)CCCN1c2ccccc2Sc2ccc(Cl)cc21 [CPZ, Chlorpromazine hydrochloride]
- Decrease in ATP content (human PCLS): 40%

Compound: COc1ccc(Cl)cc1C(=O)NCCc1ccc(S(=O)(=O)NC(=O)NC2CCCCC2)cc1 [GB, Glibenclamide]
- Intracellular GCA concentration after drug incubation (rat PCLS): 364.3 pmol/mg protein
- Inhibition of the mouse Bsep protein (mouse Bsep protein): competitively inhibit
